# Read-outs that look alike come from different tables or passages of the source. Square brackets hold non-standard residues; d marks the D form. Peptide text beside a SMILES is read from it.
# Tests used:
# [1] = Ex vitro stability study in fetal bovine serum, SDS-PAGE; type: in vitro ADME; conditions: 50 µg peptide in 200 µL, 37 °C, Coomassie, at least two measurements
# Experimental: (§1) Peptide stability was tested in the presence of fetal bovine serum (FBS, Gibco®) and human serum (HS, Sigma-Aldrich, Deisenhofen, Germany). Therefore 50 µg of the peptide was mixed with 0 µL (0%), 4 µL (2%) and 20 µL (10%) pure FBS or HS and refilled with PBS buffer to a total volume of 200 µL and incubated for 1 day, 6 days and 7 days at 37 °C. Sample aliquots of 10 µL were taken before incubation (0 h) and after 1 h, 8 h, 24 h, 2 days and 7 days of incubation. The aliquots (10 µL) were immediately mixed with 10 µL 2 × loading sample buffer and stored at −20 °C. The collected samples of the stability studies were analyzed by SDS- polyacrylamide gel electrophoresis (BioRad, Mini-PROTEAN Tetra System). As a standard, the Ultra-low Range Molecular Weight Marker M3546 (Sigma-Aldrich, Deisenhofen, Germany) was used. Before use, the collected samples of the stability studies (10 µL aliquot + 10 µL 2 xLD), as well as the Ultra-Low Molecular Weight marker (ULMW), were brought to room temperature. A concentration series in the range of 0.5 µg, 1 µg and 2.5 µg peptide per 10 µL sample volume was prepared in PBS for each peptide. In total, 10 µL of the resulting samples (0.5 µg, 1 µg and 2.5 µg peptide) were mixed with 10 µL 2 × loading buffer. Afterwards, all samples (collected samples, ULMW, concentration series) were incubated at 95 °C for 10 min.
# [2] = Propidium iodide-uptake toxicity assay, NHDF; type: cell-based, human; conditions: human, normal human dermal fibroblasts (NHDF), PI-uptake, fibroblast growth medium (2% FBS)
# Experimental: (§2) To determine peptide-induced cell death, cells were resuspended in respective media (see Section 2.2) and diluted to a concentration of 1 × 10^6 cells/mL. 100 µL Aliquots ([…]) for up to 8 h in the presence of propidium iodide PI (2 µL/10^5 cells of 50 µg/mL, Molecular Probes Inc., Eugene, OR, USA) at room temperature in black 96-well plates. PI-uptake was measured after 0, 1, 2, 4 and 8 h using the GloMax® Multi+ Detection System (Promega, Madison, WI, USA). Cytotoxicity was calculated from the percentage of PI-positive cells in media alone (P0) and in the presence of peptide (PX) (see Equation (3)). Triton-X-100 was used to determine 100% of PI-positive cells (P100). (3) %PI−uptake=100×(PX−P0)/(P100−P0)
# (§3) Excitation and emission wavelengths were 536 nm and 617 nm, respectively. The cytotoxicity of the peptides was further investigated in the presence of different serum types and amounts, as well as in the presence of protease inhibition.
# [3] = system: glioblastoma cell line U-87 mg; type: cell-based; conditions: PI-uptake
# Experimental: (§4) To determine peptide-induced cell death, cells were resuspended in respective media (see Section 2.2) and diluted to a concentration of 1 × 10^6 cells/mL. 100 µL Aliquots (10^5 cells) were incubated with different peptide concentrations (5 µM to 100 µM) for up to 8 h in the presence of propidium iodide PI (2 µL/10^5 cells of 50 µg/mL, Molecular Probes Inc., Eugene, OR, USA) at room temperature in black 96-well plates. PI-uptake was measured after 0, 1, 2, 4 and 8 h using the GloMax® Multi+ Detection System (Promega, Madison, WI, USA). Cytotoxicity was calculated from the percentage of PI-positive cells in media alone (P0) and in the presence of peptide (PX) (see Equation (3)). Triton-X-100 was used to determine 100% of PI-positive cells (P100). (3) %PI−uptake=100×(PX−P0)/(P100−P0)
# as §3
# [4] = system: melanoma cell line SBcl-2; type: cell-based; conditions: SBcl-2, PI-uptake
# Experimental: as §4, §3
# [5] = system: glioblastoma cell line LN-229; type: cell-based; conditions: LN-229, PI-uptake
# Experimental: as §4, §3
# [6] = Ex vitro stability study in human serum, SDS-PAGE; type: in vitro ADME; conditions: 50 µg peptide in 200 µL, 37 °C, Coomassie
# Experimental: as §1
# [7] = pH 7.4
# Experimental: (§5) Spectra of tryptophan fluorescence were measured at room temperature with a Cary Eclipse fluorescence spectrophotometer of Varian (Salt Lake City, UT, USA). The excitation wavelength was set to 280 nm, and the slid-width was 10 nm. The emission was recorded between 300 nm and 410 nm.
# (§6) Quenching of Tryptophan was carried out in the presence and absence of phospholipid liposomes (lipid-to-peptide ratio 25:1) using 0.1, 0.4 and 0.7 M acrylamide. The data were analyzed according to the Stern–Volmer equation (Equation (2)):(2) F0/F=1+KSV×[Q] where F0 and F represent the fluorescence emission intensities in the absence and presence of the quencher molecule (Q), and KSV is the Stern–Volmer quenching constant, which is a quantitative measure for the accessibility of tryptophan to acrylamide [80].
# [8] = Tryptophan fluorescence and acrylamide quenching in buffer (solubility/aggregation); conditions: for λ em,max / KSV (Stern–Volmer constant): PBS, mean ± SD, three experiments; for λ em,max: Trp fluorescence, excitation 280 nm, room temperature; for KSV (Stern–Volmer constant): acrylamide 0.1, 0.4, 0.7 M
# Experimental: as §5, §6
# [9] = system: normal human dermal fibroblasts NHDF; assay: Propidium iodide-uptake toxicity assay, NHDF; type: cell-based; conditions: 2–20 µM peptide, 8 h
# Experimental: as §2, §3
# melanoma cell line A375 = type: cell-based; conditions: A375, PI-uptake, 10% FBS
# Experimental: as §4, §3
# The standard growth medium used for cell line A375 was DMEM containing 10% fetal bovine serum (FBS). Before the study of peptide-induced cytotoxicity, cells were diluted to 10^5 cells/100 µL in DMEM containing 2% FBS. […]
# [10] = not given; remark: listed apart in the source
# [11] = cited from earlier work
# Description: The blood-brain barrier (BBB) is formed by a tightly sealed monolayer of endothelial cells, and the tight junctions between the endothelial cells are responsible for the barrier function of the BBB. Various drugs are discovered to treat central nervous system (CNS) disorders but fail to enter the market because of their inability to cross the BBB [19]. Vemurafenib, an antitumoral agent that is capable to pass the BBB, was approved in 2011. It inhibits the BRAF-serine/threonine-kinase and leads to a median survival of 13.6 months compared to 9.7 months upon treatment with dacarbazine [ ...
# [12] = 2% FBS in PBS, up to 7 days (9D-RDP215 main series 2 days, repeat 7 days)
# [13] = 2% HS in PBS, 7 days, at least two measurements
SMILES,"peptide degradation [1, 12]","peptide degradation ([1]; 10% FBS in PBS, up to 7 days)",CC50 at 4 h [2] [µM],CC50 at 8 h [2] [µM],LC50 after 8 h [3] [µM],LC50 after 8 h [4] [µM],LC50 after 8 h [5] [µM],"peptide degradation [6, 13]","λ em,max [8] [nm]",KSV (Stern–Volmer constant) [8] [M⁻¹],median survival [11] [months],further results
"CC[C@H](C)[C@H](NC(=O)[C@@H](CCCNC(=N)N)NC(=O)[C@H](Cc1c[nH]c2ccccc12)NC(=O)[C@H](N)Cc1ccccc1)C(=O)N[C@H](CCCNC(=N)N)C(=O)N[C@H](C(=O)N[C@H](CCCNC(=N)N)C(=O)N[C@H](CCCNC(=N)N)C(=O)N1CCC[C@H]1C(=O)N[C@H](CCCNC(=N)N)C(=O)N[C@H](CCCNC(=N)N)C(=O)N[C@H](C(=O)N[C@H](CCCNC(=N)N)C(=O)N[C@H](C(=O)N[C@H](CCCNC(=N)N)C(=O)N[C@@H](Cc1c[nH]c2ccccc12)C(=O)N[C@H](Cc1ccccc1)C(N)=O)[C@@H](C)CC)[C@@H](C)CC)[C@@H](C)CC [9D-RDP215, 9D-R-DIM-P-LF11-215] (H-[dF]W[dR]I[dR]I[dR][dR]P[dR][dR]I[dR]I[dR]W[dF]-NH2)",no degradation,no degradation,58.8 ± 4.2,18.9 ± 1,1.6 ± 0.1,1.8 ± 0.1,1.4 ± 5.1,does not show any peptide degradation,354 ± 0.5,27.0 ± 2.8,–,"peptide degradation ([6]; 10% HS in PBS, up to 7 days, at least two measurements): does not show any peptide degradation; solubility / aggregation in buffer [7]: completely dissolved and not aggregated"
"CC[C@H](C)[C@H](NC(=O)[C@H](CCCNC(=N)N)NC(=O)[C@@H](NC(=O)[C@H](CCCNC(=N)N)NC(=O)[C@H](CCCNC(=N)N)NC(=O)[C@@H]1CCCN1C(=O)[C@H](CCCNC(=N)N)NC(=O)[C@H](CCCNC(=N)N)NC(=O)[C@@H](NC(=O)[C@H](CCCNC(=N)N)NC(=O)[C@@H](NC(=O)[C@H](CCCNC(=N)N)NC(=O)[C@H](Cc1c[nH]c2ccccc12)NC(=O)[C@@H](N)Cc1ccccc1)[C@@H](C)CC)[C@@H](C)CC)[C@@H](C)CC)C(=O)N[C@@H](CCCNC(=N)N)C(=O)N[C@@H](Cc1c[nH]c2ccccc12)C(=O)N[C@@H](Cc1ccccc1)C(N)=O [RDP215, R-DIM-P-LF11-215] (H-FWRIRIRRPRRIRIRWF-NH2)",No degradation,No degradation,99.1 ± 0.1,68.2 ± 1.8,3.0 ± 0.1,4.7 ± 0.4,1.7 ± 0.1,completely degraded,356 ± 0,24.7 ± 5.4,–,"harm on NHDF cells (PI-uptake) [9]: no harm; LC50 after 4 h (melanoma cell line A375; 4 h): 17.1 ± 1.5 µM; LC50 after 8 h (melanoma cell line A375; 8 h): 3.8 ± 0.3 µM; peptide degradation ([6]; 2% HS in PBS, 1 h to 2 days): ongoing peptide degradation; peptide degradation ([6]; 10% HS in PBS, 24 h, at least two measurements): completely degraded; decrease of KSV vs buffer: 20.7 M⁻¹; λem,max with DPPS [10]: 336 nm; solubility / aggregation in buffer ([8]; PBS pH 7.4, concluded from Trp emission maximum and KSV): completely dissolved and not aggregated"
"CCCS(=O)(=O)Nc1ccc(F)c(C(=O)c2c[nH]c3ncc(-c4ccc(Cl)cc4)cc23)c1F [Vemurafenib, vemurafenib]",–,–,–,–,–,–,–,–,–,–,13.6,–
CN(C)/N=N/c1[nH]cnc1C(N)=O [dacarbazine],–,–,–,–,–,–,–,–,–,–,9.7,–

# — article PMC8395111 (International Journal of Molecular Sciences, 2021)
